The values that follow come from patent publication US9243281B2, “Neuroprotective chemicals and methods for identifying and using same” (Board of Regents of The University of Texas System, priority 2013, dated 2016).

Structures are written as SMILES.

One series deals with T1, Human NAMPT (Homo sapiens, UniProt P43490).
T1 construct: made in house; host or cells: E. coli
The series can be described thus: in vitro NAMPT coupled-enzyme assay (NADH at OD340 nm). It counts as biochemical. The conditions noted are these: for activation of recombinant NAMPT enzyme: coupled assay NAMPT, NMNAT, ADH; for NAMPT activation: relative reaction rate normalized by the control reaction run prior to compound addition, vehicle 0.98. The protocol:
FIGS. 7A-7C. […] (FIG. 7A) P7C3-A20 was incubated at indicated concentrations in a reaction coupled with three enzymes; NAMPT, NMNAT, and ADH (Experimental Procedures). NAMPT activity was recorded for the indicated period of time at OD340 nm by measuring NADH appearance, leading to the indicated concentration-time plot. […] (FIG. 7B) Analysis of the activities of thirty P7C3 analogs was performed to assess their effects on NAMPT enzymatic activity. The reaction rate was calculated as the slope of the concentration-time curve. Relative reaction rate was normalized by the control reaction run prior to compound addition. Data represents the mean of experimental duplicates. Scatter graphs were plotted to compare the ability of compounds to activate NAMPT relative to their ability to compete away P7C3-S326 crosslinking (top scatter plot), ability to protect cells from doxorubicin-mediated toxicity (middle scatter plot), or ability to facilitate NAD restoration in doxorubicin-treated cells (bottom scatter plot). […] Data are expressed as mean±SD of duplicate independent assays.
The enzymatic activity of recombinant NAMPT was monitored in a coupled assay wherein nicotinamide conversion to NMN was followed by sequential production of NAD (via the NMNAT enzyme) and NADH (via alcohol dehydrogenase). To minimize variation, a control reaction was run in each assay prior to compound addition.
Briefly, NAMPT first converted nicotinamide to NMN, which was followed by sequential production of NAD via nicotinamide mononucleotide adenylyl-transferase (NMNAT). NAD was then reduced to NADH by alcohol dehydrogenase (Sigma) using alcohol as the substrate. The resulting NADH was monitored by OD340 nm. […] 10 mM stocks of P7C3 analogs in DMSO were further diluted in ethanol prior to applying to the reaction. To minimize variation, a control reaction was run in each assay prior to compound addition.

In another series the target is T2, p70 (NAMPT) (Homo sapiens, UniProt P43490).
T2 construct: endogenous in cells; host or cells: H2122 lung cancer cells
T2 sequence (P43490 whole entry): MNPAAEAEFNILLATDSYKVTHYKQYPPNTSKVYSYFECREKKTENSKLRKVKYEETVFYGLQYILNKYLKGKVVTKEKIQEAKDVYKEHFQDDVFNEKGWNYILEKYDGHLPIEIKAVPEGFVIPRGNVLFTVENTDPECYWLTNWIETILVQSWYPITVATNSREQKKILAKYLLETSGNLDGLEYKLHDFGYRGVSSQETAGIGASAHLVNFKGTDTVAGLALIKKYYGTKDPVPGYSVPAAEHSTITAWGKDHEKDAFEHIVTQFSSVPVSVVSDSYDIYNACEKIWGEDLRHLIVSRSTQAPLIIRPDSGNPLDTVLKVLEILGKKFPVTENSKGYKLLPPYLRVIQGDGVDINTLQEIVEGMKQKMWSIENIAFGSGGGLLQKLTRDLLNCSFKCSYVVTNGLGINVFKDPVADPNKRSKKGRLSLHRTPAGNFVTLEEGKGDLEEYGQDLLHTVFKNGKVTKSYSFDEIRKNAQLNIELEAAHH
The series can be described thus: binding competition for photo-crosslinking of P7C3-S326 to p70 in H2122 cells. The conditions noted are these: 0.3 μM P7C3-S326 plus 5 μM competitor, p70 band intensity, P7C3-S326 alone compared with plus competitor, vehicle 1.0. The method, boiled down: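 Competition for photo-crosslinking: P7C3 analogs (5 uM) were added alongside the 0.3 μM P7C3-S326 probe to H2122 cells for 2 hours before 15 minutes of 306 nm UV irradiation. In-gel fluorescence of the p70 band after click labeling was normalized to DMSO.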

Series [1] deals with NAD levels in doxorubicin-treated U2OS cells. The series can be described thus: NAD rebound assay in doxorubicin-treated cells (NAD/NADH Glo). It is filed as cell-based. The conditions noted are these: 0.5 μM doxorubicin 45 h. The protocol:
FIG. 12. Five-point dose response curves (DRC) of all tested compounds in NAD rebound assay. […] Cellular NAD abundance was determined by NAD/NADH Glo assay kit.
Each chemical variant of P7C3 was co-incubated with doxorubicin on cultured U2OS cells at five doses (0.03 uM, 0.1 uM, 0.3 uM, 1 uM and 3 uM). After 45 hrs incubation, cells were assayed for intracellular levels of NAD (FIG. 12).
Assay was performed following the manufacturer's protocol. NAD/NADH-Glo reagent contains the NAD Cycling Enzyme that converts NAD+ to NADH. In the presence of NADH, the enzyme reductase reduces a proluciferin reductase substrate to form luciferin. Cells were grown in 96- or 384-well plates. 50 μl or 15 μl of NAD/NADH-Glo™ Detection Reagent were added to each well. The resulting luminescence signals were measured by Tecan plate reader or EnVison multimode plate reader (Perkin Elmer).

Series [2] has as its system neurons in living animals. The conditions noted are these: neurogenesis, MPTP model, concussive blast injury; cited from earlier work.
A further series has as its system U2OS cells. Description: doxorubicin toxicity (dox:tox) protection assay, Cell Titer Glo cell survival. It counts as cell-based. The conditions noted are these: cultured U2OS cells. The source says: FIGS. 2A-2D. […] (FIG. 2A) Chemical structure of P7C3-S326. […] (FIG. 2C) Formulas used for calculating doxorubicin toxicity (dox:tox) protection activity. Protection activity is expressed by (Sinf−S0)/AC50 in the twelve-point dose response curve (DRC) corresponding to each compound, wherein both efficacy and potency of compounds were considered. Sinf represents the expected maximal protection. S0 is the baseline. […] In the photo-crosslinking assays, the p70 band intensity was quantified by Image J, and compared the sample of P7C3-S326 alone with that of P7C3-S326 plus competitor. Pearson correlation coefficient (r) and two tailed P value were determined by GraphPad Prism 6 and Spearman Rank Correlation (v1.0.1) software.
FIG. 10. Twelve-point dose response curves (DRC) of all tested compounds in doxorubicin toxicity protection assay. […] Cell viability was determined by Cell Titer Glo assay kit.
Cell survival assay was performed in 96-well plates using CellTiter-Glo Luminescent Cell Viability Assay kit (Promega) that measures cellular ATP content. The CellTiter-Glo reagent was diluted by adding 2 volumes of PBS containing 1% Triton X-100. 50 μl of diluted reagent was directly added to 100 μl of cell culture medium per well. Plates were incubated at room temperature for 10 minutes. Luminescence was recorded by Tecan […]luor Plus reader (Tecan). Cell survival was presented as the percentage of viable cells compared with untreated control, and mean±SD was calculated from duplicates. The dox:tox assay of P7C3 analogs was carried out in the HTS Core (University of Texas Southwestern Medical Center) using the EnVison multimode plate reader (Perkin Elmer).
On the technique in general: Cellular ATP, detected with luciferase, serves as a proxy for viable cell number.

Series [3] has as its system hippocampal neurogenesis (Dentate Gyrus). Description: in vivo neurogenesis assay (BrdU+ cells in dentate gyrus). On the set-up: species or system mice. The conditions noted are these: for Neurogenesis # BrdU+ Cells (X10E06)/mm3 Dentate Gyrus: living mice, vehicle (DMSO) 7.3. A digest of the protocol:
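New hippocampal cells were tracked by daily BrdU injections and anti-BrdU staining of brain sections. Adult mice (two per pool of ten compounds) got week-long intracerebroventricular infusion by mini-pump, dosed for mid-nanomolar exposure.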

The conditions of series [4]: mice; IP, IV or oral routes; cited from earlier work.
Another series has as its system aged Fisher rats. The conditions noted are these: cited from earlier work.
For series [5] the following is noted: mice and rats, concentrations well above those required to stimulate hippocampal neurogenesis; cited from earlier work.
Series [6] relates to hippocampal neurogenesis (Dentate Gyrus). The conditions noted are these: cited from earlier work.

T1 sequence (P43490 whole entry): as above

`COc1cccc(NCC(F)Cn2c3ccc(Br)cc3c3cc(Br)ccc32)n1` (racemic) [S243, N-(3-(3,6-dibromo-9H-carbazol-9-yl)-2-fluoropropyl)-6-methoxypyridin-2-amine]: at Human NAMPT, the “activation of recombinant NAMPT enzyme” value is recorded as “more active than the (+)P7C3-S243 enantiomer” and the NAMPT activation stood at 1.26. Also, the Binding competition at p70 (NAMPT) is reported as 2.2. The “rebound of NAD levels (NAD/NADH-Glo kit)” value in series [1] is listed as “NAD rebound”.
For the compound `COc1cccc(NC[C@H](F)Cn2c3ccc(Br)cc3c3cc(Br)ccc32)n1` [(−)-S243, (S)—N-(3-(3,6-Dibromo-9H-carbazol-9-yl)-2-fluoropropyl)-6-methoxypyridin-2-amine], the “activity in the three in vivo assays of neuroprotection” value in series [2] is “active”. Besides, the “protection from doxorubicin-mediated toxicity (dox:tox assay)” value (“protection … (dox:tox assay)” below) in the series on U2OS cells was “protective”. For the same compound, at Human NAMPT, the “activation of recombinant NAMPT enzyme” value is “more active in stimulating NAMPT than the racemix mix” and the NAMPT activation was 1.33. In addition, the Binding competition at p70 (NAMPT) is 4.8. The “Neurogenesis # BrdU+ Cells (X10E06)/mm3 Dentate Gyrus” value (from here on “Neurogenesis # BrdU+ Cells”) in series [3] is reported as 18.1 (X10E06)/mm3.
In the case of `C#CCOc1ccc(C(=O)c2ccc(C(=O)NCC(F)Cn3c4ccc(Br)cc4c4cc(Br)ccc43)cc2)cc1` (centres unmarked) [S326, N-(3-(3,6-dibromo-9H-carbazol-9-yl)-2-fluoropropyl)-4-(4-(prop-2-yn-1-yloxy)benzoyl)benzamide], the “protection … (dox:tox assay)” value in the series on U2OS cells is on record as “active”. The NAMPT activation at Human NAMPT stood at 1.10. Further, the “activity in the in vivo neurogenesis assay” value in [3] (mouse, in vivo) is “active”.
As for `COc1cccc(NC[C@@H](F)Cn2c3ccc(Br)cc3c3cc(Br)ccc32)n1` [(+)-S243], the “activity in the three in vivo assays of neuroprotection” value in series [2] is recorded as “far less active”. The “protection … (dox:tox assay)” value with U2OS cells was “considerably less active”. In addition, at Human NAMPT, the NAMPT activation came out at 1.13. For the same compound, on p70 (NAMPT), the Binding competition was determined as 4.2. For the same compound, in series [3], the “Neurogenesis # BrdU+ Cells” value is 10.0 (X10E06)/mm3.
With `O=S(=O)(CC(F)Cn1c2ccc(Br)cc2c2cc(Br)ccc21)c1cccc(O)c1` (centres unmarked) [S101], the NAMPT activation on Human NAMPT came to 1.12. For the same compound, at p70 (NAMPT), the Binding competition amounted to 2.4. The “Neurogenesis # BrdU+ Cells” value in series [3] is on record as 9.9 (X10E06)/mm3.
In the same order, the values of `Cl.NCC(F)Cn1c2ccc(Br)cc2c2cc(Br)ccc21` (centres unmarked) [S217] are 0.89, 2.6 and 12.3 (X10E06)/mm3.
In the same order, the values of `NC(=O)Cn1c2ccc(Br)cc2c2cc(Br)ccc21` [S213] are 1.00, 1.1 and 6.5 (X10E06)/mm3.
For the compound `c1ccc2c(c1)CCc1ccccc1N2` [S212], the NAMPT activation on Human NAMPT was determined as 1.04. At p70 (NAMPT), the Binding competition is 1.0. Besides, in series [3], the “Neurogenesis # BrdU+ Cells” value was 10.3 (X10E06)/mm3.
Taken in the same sequence, the figures for `COc1cccc(NCC(Cn2c3ccc(Br)cc3c3cc(Br)ccc32)OC)c1` (centres unmarked) [S13] were 1.21, 1.7 and 11.6 (X10E06)/mm3.
In the case of `OC(CNc1ccccc1)Cn1c2ccc(Br)cc2c2cc(Br)ccc21` (centres unmarked) [P7C3], the “half-life, volume of distribution and brain penetration” value in [4] was “favorable”. Also, in the series with aged Fisher rats, the “body weight relative to vehicle-treated controls” value was “maintained body weight” and the cognitive decline result is given as “abrogation of cognitive decline”. For the same compound, the Binding competition on p70 (NAMPT) was 2.6. The “toxicity on prolonged administration” value in series [5] is given as “not overtly toxic to rodents”. For the same compound, the “enhancement in BrdU-positive hippocampal neurons” value in series [6] (BrdU pulsed one day, then P7C3 for a month) is 500%. The “enhanced level of BrdU-positive neurons” value in series [6] (week-long dose of P7C3) was “two-fold”. Besides, the “Neurogenesis # BrdU+ Cells” value in series [3] was 15.0 (X10E06)/mm3.
Turning to `O=S(=O)(CC(F)Cn1c2ccc(Br)cc2c2cc(Br)ccc21)c1ccccc1` (centres unmarked) [S53], the NAMPT activation at Human NAMPT is 1.05. Further, the Binding competition at p70 (NAMPT) turned out to be 1.4. For the same compound, in series [3], the “Neurogenesis # BrdU+ Cells” value is 17.1 (X10E06)/mm3.
For the compound `Nc1ccc[n+](CC(O)Cn2c3ccc(Br)cc3c3cc(Br)ccc32)c1` (centres unmarked) [S6], the Binding competition at p70 (NAMPT) is listed as 1.4. In addition, in series [3], the “Neurogenesis # BrdU+ Cells” value is given as 8.4 (X10E06)/mm3. The “rebound of NAD levels (NAD/NADH-Glo kit)” value in series [1] is recorded as “no rebound at all”.
Consider `Brc1ccc2c(c1)c1cc(Br)ccc1n2CCCNc1ccccc1` [S33], for which the NAMPT activation on Human NAMPT amounted to 1.12. Besides, the Binding competition on p70 (NAMPT) worked out at 2.8. Further, the “Neurogenesis # BrdU+ Cells” value in [3] was 11.6 (X10E06)/mm3.
On to `C#CCN(C)[C@H](C)Cc1ccccc1` [S117, Selegiline, reference compound], for which, at p70 (NAMPT), the Binding competition is 1.0. Besides, in series [3], the “Neurogenesis # BrdU+ Cells” value was 8.1 (X10E06)/mm3. The “rebound of NAD levels (NAD/NADH-Glo kit)” value in [1] is “no rebound at all”.
With `N#CCn1c2ccc(Br)cc2c2cc(Br)ccc21` [S235], the NAMPT activation on Human NAMPT was determined as 0.97. Further, the Binding competition at p70 (NAMPT) worked out at 1.8. Besides, the “Neurogenesis # BrdU+ Cells” value in series [3] is given as 11.7 (X10E06)/mm3.
Turning to `COC(=O)NC(=O)Cn1c2ccc(Br)cc2c2cc(Br)ccc21` [S234], the NAMPT activation on Human NAMPT came to 0.93. Besides, the Binding competition at p70 (NAMPT) came to 1.0. In addition, in series [3], the “Neurogenesis # BrdU+ Cells” value is 17.8 (X10E06)/mm3.
`CN1C(=O)CN=C(c2ccc(Cl)cc2)c2cc(Cl)ccc21` [S203] gave an NAMPT activation on Human NAMPT of 1.00. The Binding competition at p70 (NAMPT) came to 3.9. The “Neurogenesis # BrdU+ Cells” value in series [3] was 10.8 (X10E06)/mm3.
